Measured values as given in patent US10174015B2, “Substituted heterocyclic derivative, preparation method and use thereof” (Xiamen University, priority 2014, dated 2019).

Assay: Assay on drug metabolism in rat
Assay type: in vivo, SD rats
Conditions: SD, plasma, iv, 30 mg/Kg via jugular vein
From the text: 50 SD rats (purchased from Shanghai SLAC Laboratory Animal Co., Ltd) were divided into 5 groups randomly, 10 rats per group. After anesthesia with ether, rat was fixed on the operating table on its back, and was shaved at the operative site of neck. After disinfection with 75% alcohol, the neck was cut about 1.5 cm longitudinally, muscle tissues and nervi vascularis surrounding trachea were separated by blunt dissection, and carotid artery was separated by blunt dissection. Ligation was performed at distal end, an artery clamp was used at proximal part, and the distance between them was about 1 cm. A small cut was made with a pair of ophthalmic scissors at proximal part close to the ligated site, and arterial duct was introduced from the small cut to the proximal part, the artery clamp was loosened, the arterial ostium was clamped with smooth forceps, whilst the arterial duct was delivered to heart ventricle. Upon the introduction of the arterial duct into heart ventricle, the blood vessel was ligated. By using the same intubation method for artery, intubation was applied to jugular veins. After intubation, a tubule filled with heparin sodium was drawn out from artery and vein, which passed through the skin under the ear of the rat and drawn out from the dorsal part skin of the neck of the rat, and the tubule was fixed well. The muscles and skin were sutured at the surgical site of the rat, and normal saline containing heparin sodium was injected from time to time via the tubule connecting the artery and the vein to prevent tubule obstruction due to blood coagulation. The rat was placed in a warm and clean cage provided with water and food, waiting for the rat to wake up naturally.
After the rat regained consciousness and acted normally, assay on metabolic stability of compounds was performed in the rat. All the agents to be injected (including compounds to be tested and control drug) were dissolved in a mixed solvent of PEG400:Tween 80:normal saline (at a volume ratio of 5:5:90), at a concentration of 5 mg/mL. The agent was injected slowly at a dose of 30 mg/Kg via the tubule drawn out from the jugular vein. After administration, the time was recorded, and blood was collected from the tubule drawn out from carotid artery at 2, 5, 10, 20, 30, 60, 240, 360, and 720 min, in an amount of 200 μL for each time. The whole blood was placed in commercially available heparin sodium blood-collecting tube (Jiangxi Jingzhi Medical Equipment Co., Ltd.), centrifuged at 1800 g for 15 min. To the supernatant plasma, 150 μL pre-cooled methanol stopping buffer (containing internal standard E8, 1 nmol/sample) was added, vertically mixed well, and then centrifuged at 4° C., 12000 g for 10 min. The supernatant was transferred to a sample vial, the target compound was detected by LC-MS/MS, and the content of the compound was calculated by virtue of standard curve.

SMILES: O=C(CCCCCc1cccc(Cl)c1)N1CCOC1=O [Compound 9, 3-Chlorophenylhexanoyl Oxazolidinone]
- half-life: 1.95 h

SMILES: O=C(CCCCCc1ccccc1)N1CCOC1=O [Compound 2, Phenylhexanoyl Oxazolidinone]
- half-life: 2.4 h
